Patent US10150767B2, “Therapeutic compounds and uses thereof” (priority 2014, dated 2018)

What was measured:
BRD9 = BRD9 (Homo sapiens (Human), UniProt Q9H8M2); assay: BRD9 AlphaLisa binding assay; conditions: biotinylated H4-tetraacetyl peptide
Method: After 20 minutes incubation at room temperature AlphaLisa Streptavidin Acceptor Beads (Perkin-A[…]) and AlphaLisa Nickel donor beads (Perkin AS 10 ID) were added to a final concentration of 15 ug/mL each.

BRD4(BD1) = BRD4(BD1) (Homo sapiens (Human), UniProt O60885); assay: BRD4 AlphaLisa binding assay; conditions: biotinylated H4-tetraacetyl peptide
Description: IC50 Measurements for Inhibitors Using BRD4 AlphaLisa Binding Assay

Chain of BRD9 (Q9H8M2 134-239 limits assumed): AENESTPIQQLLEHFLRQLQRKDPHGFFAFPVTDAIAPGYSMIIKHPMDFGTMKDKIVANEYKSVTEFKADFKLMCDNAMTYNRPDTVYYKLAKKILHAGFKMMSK

Compound | IC50 (BRD4(BD1)) [nM] | IC50 (BRD9) [nM]
COCCNC(=O)c1ccc(-c2cn(C)c(=O)c3[nH]ccc23)cc1 [Example 3, N-(2-methoxyethyl)-4-(6-methyl-7-oxo-1H-pyrrolo[2,3-c]pyridin-4-yl)benzamide] |  | 24
CC1CC(=O)Nc2ccc(-c3cn(C)c(=O)c4[nH]ccc34)cc2N1 (stereo not drawn) [Example 13, 4-methyl-7-(6-methyl-7-oxo-1H-pyrrolo[2,3-c]pyridin-4-yl)-1,3,4,5-tetrahydro-1,5-benzodiazepin-2-one] | 170 | 
Cn1cc(-c2ccc(C(=O)N3CCCC3)cc2)c2cc[nH]c2c1=O [Example 29, 6-methyl-4-[4-(pyrrolidine-1-carbonyl)phenyl]-1H-pyrrolo[2,3-c]pyridin-7-one] | 280 | 
Cn1cc(-c2ccc(C(=O)N3CCC(C(N)=O)CC3)cc2)c2cc[nH]c2c1=O [Example 33, 1-[4-(6-methyl-7-oxo-1H-pyrrolo[2,3-c]pyridin-4-yl)benzoyl]piperidine-4-carboxamide] | 260 | 
CC(C)(O)c1ccc(-c2cn(C3CC3)c(=O)c3[nH]ccc23)cc1 [Example 41, 6-cyclopropyl-4-(4-(2-hydroxypropan-2-yl)phenyl)-1H-pyrrolo[2,3-c]pyridin-7(6H)-one] |  | 110
CN(CC#N)C(=O)c1ccc(-c2cn(C)c(=O)c3[nH]ccc23)cc1 [Example 38, N-(cyanomethyl)-N-methyl-4-(6-methyl-7-oxo-1H-pyrrolo[2,3-c]pyridin-4-yl)benzamide] | 200 | 
Cn1cc(-c2ccc3c(c2)N(C(=O)OC(C)(C)C)CCC3)c2cc[nH]c2c1=O [Example 5, tert-butyl 7-(6-methyl-7-oxo-1H-pyrrolo[2,3-c]pyridin-4-yl)-3,4-dihydro-2H-quinoline-1-carboxylate] |  | 130
Cn1cc(-c2ccc(C(C)(C)O)cc2)c2cc[nH]c2c1=O [Example 39, 4-[4-(1-hydroxy-1-methyl-ethyl)phenyl]-6-methyl-1H-pyrrolo[2,3-c]pyridin-7-one] |  | 21
CN1CCC(Cc2ccc(-c3cn(C)c(=O)c4[nH]ccc34)cc2)CC1 [Example 45, 6-methyl-4-[4-[(1-methyl-4-piperidyl)methyl]phenyl]-1H-pyrrolo[2,3-c]pyridin-7-one] |  | 64
CN1CCC(c2ccc(-c3cn(C)c(=O)c4[nH]ccc34)cc2)CC1 [Example 42, 6-methyl-4-[4-(1-methyl-4-piperidyl)phenyl]-1H-pyrrolo[2,3-c]pyridin-7-one] |  | 53
Cn1cc(-c2ccc(NC(=O)OC(C)(C)C)cc2)c2cc[nH]c2c1=O [Example 6, tert-butyl N-[4-(6-methyl-7-oxo-1H-pyrrolo[2,3-c]pyridin-4-yl)phenyl]carbamate] |  | 85
CC1CNc2cc(-c3cn(C)c(=O)c4[nH]ccc34)ccc2NC1=O (stereo not drawn) [Example 11, 3-methyl-7-(6-methyl-7-oxo-1H-pyrrolo[2,3-c]pyridin-4-yl)-1,3,4,5-tetrahydro-1,5-benzodiazepin-2-one] |  | 31
Cn1cc(-c2ccc3c(c2)NCCC(=O)N3)c2cc[nH]c2c1=O [Example 12, 7-(6-methyl-7-oxo-1H-pyrrolo[2,3-c]pyridin-4-yl)-1,3,4,5-tetrahydro-1,5-benzodiazepin-2-one] |  | 25
CCCn1cc(-c2cccc(C(=O)N(C)C)c2)c2cc[nH]c2c1=O [Example 19, N,N-dimethyl-3-(7-oxo-6-propyl-1H-pyrrolo[2,3-c]pyridin-4-yl)benzamide] |  | 238
Cn1cc(-c2ccc(C(=O)N3CC(F)C3)cc2)c2cc[nH]c2c1=O [Example 27, 4-[4-(3-fluoroazetidine-1-carbonyl)phenyl]-6-methyl-1H-pyrrolo[2,3-c]pyridin-7-one] | 84 | 
Cn1cc(-c2ccc3c(c2)N2CCCC2CC(=O)N3)c2cc[nH]c2c1=O (stereo not drawn) [Example 15, 2-(6-methyl-7-oxo-1H-pyrrolo[2,3-c]pyridin-4-yl)-5,7,7a,8,9,10-hexahydropyrrolo[2,1-d][1,5]benzodiazepin-6-one] | 81 | 

Now from value to compound, other results behind:

IC50 (BRD4(BD1)) [nM] | Compound | IC50 (BRD9) [nM]
58 | Cn1cc(-c2ccc3c(c2)NC(c2cccs2)CC(=O)N3)c2cc[nH]c2c1=O (stereo not drawn) [Example 17, 7-(6-methyl-7-oxo-1H-pyrrolo[2,3-c]pyridin-4-yl)-4-(2-thienyl)-1,3,4,5-tetrahydro-1,5-benzodiazepin-2-one] | 
710 | Cn1cc(-c2ccc(CO)cc2)c2cc[nH]c2c1=O [Example 25, 4-[4-(hydroxymethyl)phenyl]-6-methyl-1H-pyrrolo[2,3-c]pyridin-7-one] | 
340 | CN(C(=O)c1ccc(-c2cn(C)c(=O)c3[nH]ccc23)cc1)c1ccccc1 [Example 36, N-methyl-4-(6-methyl-7-oxo-1H-pyrrolo[2,3-c]pyridin-4-yl)-N-phenyl-benzamide] | 
180 | Cn1cc(-c2cccc(C(N)=O)c2)c2cc[nH]c2c1=O [Example 21, 3-(6-methyl-7-oxo-1H-pyrrolo[2,3-c]pyridin-4-yl)benzamide] | 
110 | CC(C)c1nc2cc(-c3cn(C)c(=O)c4[nH]ccc34)ccc2[nH]c1=O [Example 14, 3-isopropyl-6-(6-methyl-7-oxo-1H-pyrrolo[2,3-c]pyridin-4-yl)-1H-quinoxalin-2-one] | 
170 | CC1CCN(C(=O)c2ccc(-c3cn(C)c(=O)c4[nH]ccc34)cc2)CC1 [Example 31, 6-methyl-4-[4-(4-methylpiperidine-1-carbonyl)phenyl]-1H-pyrrolo[2,3-c]pyridin-7-one] | 
150 | Cn1cc(-c2cccc(C#N)c2)c2cc[nH]c2c1=O [Example 23, 3-(6-methyl-7-oxo-1H-pyrrolo[2,3-c]pyridin-4-yl)benzonitrile] | 
110 | CC1Nc2cc(-c3cn(C)c(=O)c4[nH]ccc34)ccc2NC1=O (stereo not drawn) [Example 10, 3-methyl-6-(6-methyl-7-oxo-1H-pyrrolo[2,3-c]pyridin-4-yl)-3,4-dihydro-1H-quinoxalin-2-one] | 
310 | Cn1cc(-c2ccc3c(c2)N2C(=O)CCC2C(=O)N3)c2cc[nH]c2c1=O (stereo not drawn) [Example 9, 8-(6-methyl-7-oxo-6,7-dihydro-1H-pyrrolo[2,3-c]pyridin-4-yl)-3,3a-dihydropyrrolo[1,2-a]quinoxaline-1,4(2H,5H)-dione] | 
210 | Cn1cc(-c2ccc3c(c2)CC(=O)N3)c2cc[nH]c2c1=O [Example 2, 6-methyl-4-(2-oxoindolin-5-yl)-1H-pyrrolo[2,3-c]pyridin-7-one] | 
110 | Cn1cc(-c2ccc3c(c2)CCCN3C(=O)OC(C)(C)C)c2cc[nH]c2c1=O [Example 4, tert-butyl 6-(6-methyl-7-oxo-1H-pyrrolo[2,3-c]pyridin-4-yl)-3,4-dihydro-2H-quinoline-1-carboxylate] | 
51 | Cn1cc(-c2ccc(C(=O)Nc3cccnc3)cc2)c2cc[nH]c2c1=O [Example 34, 4-(6-methyl-7-oxo-1H-pyrrolo[2,3-c]pyridin-4-yl)-N-(3-pyridyl)benzamide] | 
320 | CC(=O)N1CCN(C(=O)c2ccc(-c3cn(C)c(=O)c4[nH]ccc34)cc2)CC1 [Example 32, 4-[4-(4-acetylpiperazine-1-carbonyl)phenyl]-6-methyl-1H-pyrrolo[2,3-c]pyridin-7-one] | 
540 | Cn1cc(-c2ccccc2)c2cc[nH]c2c1=O [Example 1, 6-methyl-4-phenyl-1H-pyrrolo[2,3-c]pyridin-7(6H)-one] | 
